Source: publication PMC10089289, “Well-Defined Heparin Mimetics Can Inhibit Binding of the Trimeric Spike of SARS-CoV-2 in a Length-Dependent Manner” (JACS Au, 2023)

Biological target: SARS-CoV-2 Delta RBD binding to Vero E6 cells (Severe acute respiratory syndrome coronavirus 2, UniProt P0DTC2, L452R/T478K)
Format: cell-based

NCCCCCOC1OC(COS(=O)(=O)O)C(OC2OC(C(=O)O)C(OC3OC(COS(=O)(=O)O)C(OC4OC(C(=O)O)C(OC5OC(COS(=O)(=O)O)C(OC6OC(C(=O)O)C(O)C(O)C6O)C(O)C5NS(=O)(=O)O)C(O)C4OS(=O)(=O)O)C(O)C3NS(=O)(=O)O)C(O)C2OS(=O)(=O)O)C(O)C1NS(=O)(=O)O (stereo not shown) [Compound 1, GlcA-GlcNS6S-IdoA2S-GlcNS6S-IdoA2S-GlcNS6S]
Inhibition of delta RBD binding to Vero E6 cells: does not display inhibition
